Assay [1] relates to C57BL/6N female mice. Description: T-maze continuous alternation. As to conditions: for spontaneous alternation rate: normal mice.
In a further assay the target is T1, k opioid receptors (Cavia porcellus, UniProt P41144).
T1 construct: Membrane fractions were prepared from Sprague-Dawley rat or guinea pig brains; from tissue; host or cells: guinea pig brain (without cerebella) membranes
In words: Opioid receptor binding assay, [3H]U69,593, guinea pig brain membranes.

The test system of assay [2] is C57BL/6N female mice. Description: Object recognition task. As to conditions: for object recognition (memory): normal mice; for effect on scopolamine-induced impairment of object recognition: scopolamine-pretreated mice.
The target in assay [3] is T2, σ receptors labelled by [^3H](+)-pentazocine (σ1) (Cavia porcellus, UniProt Q60492).
T2 construct: from tissue; host or cells: guinea pig brain membranes
T2 sequence (Q60492 whole entry): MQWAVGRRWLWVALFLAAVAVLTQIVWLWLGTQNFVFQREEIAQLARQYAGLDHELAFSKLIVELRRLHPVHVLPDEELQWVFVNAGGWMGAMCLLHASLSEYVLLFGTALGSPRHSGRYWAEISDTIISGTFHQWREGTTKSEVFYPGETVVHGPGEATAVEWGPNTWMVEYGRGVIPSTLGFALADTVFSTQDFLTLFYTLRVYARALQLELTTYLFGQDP
Description: Sigma receptor binding assay, [3H](+)-pentazocine. Further details: species or system guinea pig. As to the method: Filters were washed three times with 5 ml of ice-cold 10 mM Tris-HCI buffer (pH 8). The bound radioactivity was measured by liquid scintillation counting (Beckman Coulter™ LS6500). […] The values are expressed as the mean ± S.E.M of 2 - 4 independent experiments, each performed in duplicate.

Assay [4] has as its target T3, electric eel AChE (EC 3.1.1.7) (Electrophorus electricus, UniProt O42275).
T3 construct: purchased Sigma-Aldrich, Germany
Description: Spectrophotometric assay for AChE inhibitory activity (modified Ellman's method). Format: biochemical. As to conditions: 96-well microplate, 1% DMSO; read-out: AChE inhibitory activity IC50.

Assay [5] concerns C57BL/6N female mice. In words: Open field (locomotor activity). It is filed as in vivo. As to conditions: for general locomotion in the open field (move distance, move time): 10 min. The source says: Each mouse was used only once. […] . […] Thereafter it was replaced by the obturator.
The open field consisted of a transparent plastic box with white floor (41 x 41 x 41 cm) equipped with an automated activity monitoring system (True Scan, Coulbourn Instruments, Allentown, Pennsylvania, USA). The illumination at floor level was 150 lux. Mice were individually placed into the centre of the open field and their behaviours were tracked with the activity monitoring system. The time of locomotor activity, the overall distance travelled by the mice and the fraction of locomotor activity in the center area (center distance and center time) were monitored for 10 min. The arena was thoroughly cleaned with wet paper towels and dried at the end of each test.
Statistical analysis: All data from behavioural studies are shown as mean ± SEM. Statistical analysis was performed using the analysis of variance (ANOVA), followed by post hoc multiple comparisons Tukey-Kramer test, except comparison of alternation rates with the theoretical value of chance (defined as 50%) which was evaluated by Wilcoxon signed rank test. All statistical analyses were carried out by using the Graphpad Prism Program, version 4.0, Graphpad software, Inc.

In another assay the target is T4, δ opioid receptors (Rattus norvegicus, UniProt P33533).
T4 construct: Membrane fractions were prepared from Sprague-Dawley rat or guinea pig brains; from tissue; host or cells: Sprague-Dawley rat brain (without cerebella) membranes
T4 sequence (P33533 whole entry): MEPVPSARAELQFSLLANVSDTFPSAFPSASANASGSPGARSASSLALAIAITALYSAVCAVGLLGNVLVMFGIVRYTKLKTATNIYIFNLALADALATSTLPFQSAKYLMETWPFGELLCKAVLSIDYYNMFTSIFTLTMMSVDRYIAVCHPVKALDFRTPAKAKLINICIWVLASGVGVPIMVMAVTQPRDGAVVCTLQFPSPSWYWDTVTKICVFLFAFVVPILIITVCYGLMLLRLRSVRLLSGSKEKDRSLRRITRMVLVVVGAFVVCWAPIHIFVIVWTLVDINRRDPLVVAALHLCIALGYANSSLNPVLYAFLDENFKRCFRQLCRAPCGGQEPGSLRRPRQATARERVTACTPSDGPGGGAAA
In words: Opioid receptor binding assay, [3H][Ile5,6]deltorphin II, rat brain membranes. More on the design: species or system Sprague-Dawley rat.

The mark [6] stands for this setting: scopolamine 0.033 µmol, compound 0.01 and 0.1 µmol i.c.v.

Read-outs that look alike come from different tables or passages of the source.

T1 sequence (P41144 whole entry): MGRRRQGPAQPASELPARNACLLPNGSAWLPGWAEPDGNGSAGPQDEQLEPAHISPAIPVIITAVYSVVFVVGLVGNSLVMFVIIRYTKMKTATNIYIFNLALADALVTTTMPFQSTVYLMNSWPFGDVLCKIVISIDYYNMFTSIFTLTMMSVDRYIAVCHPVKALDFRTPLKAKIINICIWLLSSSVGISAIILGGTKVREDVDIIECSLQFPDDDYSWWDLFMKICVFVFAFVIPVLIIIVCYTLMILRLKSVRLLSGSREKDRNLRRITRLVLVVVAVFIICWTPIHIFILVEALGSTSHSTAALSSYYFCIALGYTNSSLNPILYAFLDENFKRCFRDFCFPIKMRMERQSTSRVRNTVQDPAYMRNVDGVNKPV
T3 sequence (O42275 24-633): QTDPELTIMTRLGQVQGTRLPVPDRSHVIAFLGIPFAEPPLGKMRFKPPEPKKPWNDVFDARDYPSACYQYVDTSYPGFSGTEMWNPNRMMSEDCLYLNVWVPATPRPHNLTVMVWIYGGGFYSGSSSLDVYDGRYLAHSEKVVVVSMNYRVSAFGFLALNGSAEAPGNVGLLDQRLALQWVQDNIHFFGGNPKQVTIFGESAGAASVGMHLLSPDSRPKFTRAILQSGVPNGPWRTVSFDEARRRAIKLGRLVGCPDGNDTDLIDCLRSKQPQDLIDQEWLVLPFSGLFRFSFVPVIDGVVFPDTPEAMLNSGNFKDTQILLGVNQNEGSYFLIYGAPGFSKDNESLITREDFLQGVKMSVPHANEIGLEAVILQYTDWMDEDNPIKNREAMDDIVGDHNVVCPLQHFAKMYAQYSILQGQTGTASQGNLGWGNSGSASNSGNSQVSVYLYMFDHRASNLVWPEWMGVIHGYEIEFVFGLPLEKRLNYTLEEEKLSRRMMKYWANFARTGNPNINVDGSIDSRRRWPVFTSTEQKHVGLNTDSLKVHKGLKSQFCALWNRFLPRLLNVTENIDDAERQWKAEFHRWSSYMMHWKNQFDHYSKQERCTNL

For `O=CN1CC[C@]23CC(=O)CC[C@H]2[C@H]1Cc1c(O)ccc(O)c13` [Compound 1, 1,4-dihydroxy-N-formylmorphinan-6-one], in the assay with C57BL/6N female mice [1] (0.01 and 0.1 µmol i.c.v.), the spontaneous alternation rate entry was “did not influence alternation”. The “effect on scopolamine-increased running time” value with C57BL/6N female mice [1] (setting [6]) is recorded as “did not influence”. The “effect on scopolamine-induced reduction in alternation” value in the assay on C57BL/6N female mice [1] (setting [6]) is given as “abolished the cholinergic impairment of alternation”. For the same molecule, the inhibitory constant (Ki) (commonly a measure of affinity in units of concentration, obtained from inhibition or displacement) on k opioid receptors was more than 10 µM; at k opioid receptors (read-out: Opioid binding affinities Ki κ receptor, [3H]U69,593, guinea pig brain membranes), more than 10 µM; at δ opioid receptors, more than 10 µM; on δ opioid receptors (read-out: Opioid binding affinities Ki δ receptor, [3H][Ile5,6]deltorphin II, rat brain membranes) it was more than 10 µM. For the same molecule, the “binding to opioid receptor K (in words)” value at k opioid receptors is “does not bind”. For the same molecule, the entries for the “object recognition (memory)” value in the assay on C57BL/6N female mice [2] (0.01 µmol i.c.v.) and in the assay with C57BL/6N female mice [2] (0.1 µmol i.c.v.) were “did not influence memory” and “significant impairment”, respectively. Further, the “effect on scopolamine-induced impairment of object recognition” value in the assay on C57BL/6N female mice [2] (0.01 µmol i.c.v.) is “abolished the scopolamine-induced impairment of object recognition”. For the same molecule, the IC50 (usually the concentration that inhibits the measured activity by half) was more than 10 µM in assay [3] and 105 µM in assay [4]. In addition, the “relative center distance and move time” value was “had no effect” with C57BL/6N female mice [5] (0.01 µmol i.c.v.); “increased the relative center distance and move time significantly” with C57BL/6N female mice [5] (0.1 µmol i.c.v.). Also, the “general locomotion in the open field (move distance, move time)” value in the assay on C57BL/6N female mice [5] (0.01 and 0.1 µmol i.c.v.) is “did not influence”. Besides, the “binding to opioid receptor δ (in words)” value at δ opioid receptors is given as “does not bind”.

Turning to `C=CCN1CC[C@]23CC(=O)CC[C@H]2[C@H]1Cc1cccc(OC)c13` [Compound 4, 4-methoxy-N-allylmorphinan-6-one], the spontaneous alternation rate entry in the assay with C57BL/6N female mice [1] (0.05 µmol i.c.v.) is on record as “decreased spontaneous alternation rate”; in the assay with C57BL/6N female mice [1] (lower (0.001; 0.01 and 0.025 µmol) or higher doses (0.1 µmol) i.c.v.), “did not exert a significant effect”. The “effect on scopolamine-induced reduction in alternation” value in the assay on C57BL/6N female mice [1] (scopolamine 0.033 µmol, compound 0.01 µmol i.c.v., not shown) is listed as “ineffective”; in the assay with C57BL/6N female mice [1] (scopolamine 0.033 µmol, compound 0.05 µmol i.c.v.), “ameliorated”. Besides, the Ki on k opioid receptors is 0.0331 µM; at δ opioid receptors, 0.316 µM. Further, in the assay with C57BL/6N female mice [2] (0.05 µmol i.c.v.), the “object recognition (memory)” value was “small impairment of memory”. Moreover, the “effect on scopolamine-induced impairment of object recognition” value with C57BL/6N female mice [2] (0.05 µmol i.c.v.) is “abolished the scopolamine-induced impairment of object recognition”. In addition, the figures for the half-inhibitory concentration (IC50) in assay [3] and in assay [4] were more than 0.01 µM and 1 µM, respectively. Besides, the “general locomotion in the open field (move distance, move time)” value in the assay on C57BL/6N female mice [5] (0.1 µmol i.c.v.) was “did not influence”. In addition, the “fraction of locomotor activity in the central zone” value in the assay with C57BL/6N female mice [5] (dose not given) is “did not influence”.

The record behind these values is patent EP2340832A1, “Morphinan-6-one compounds for the treatment or prevention of neurodegenerative diseases” (Universität Innsbruck, priority 2009, dated 2011).
